According to ChEMBL document CHEMBL3826976, “New Insights into Human 17β-Hydroxysteroid Dehydrogenase Type 14: First Crystal Structures in Complex with a Steroidal Ligand and with a Potent Nonsteroidal Inhibitor” (J Med Chem, 2016):

Molecular target: T1, 17-beta-hydroxysteroid dehydrogenase 14 (Homo sapiens) (UniProt Q9BPX1)
T1 sequence (whole entry): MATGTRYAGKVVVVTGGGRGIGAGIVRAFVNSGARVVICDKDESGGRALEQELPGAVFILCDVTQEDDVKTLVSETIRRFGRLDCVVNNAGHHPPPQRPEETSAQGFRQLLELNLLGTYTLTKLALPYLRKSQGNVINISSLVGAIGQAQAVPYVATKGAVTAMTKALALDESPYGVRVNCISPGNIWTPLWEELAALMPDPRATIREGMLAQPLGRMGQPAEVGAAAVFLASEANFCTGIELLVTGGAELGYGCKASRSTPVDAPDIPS
Description: Binding affinity to human 17-beta-HSD14 assessed as change in melting temperature at 0.25 mM by thermal shift assay

Row | SMILES | ΔTm [°C]
1 | C[C@]12CC[C@@H]3c4ccc(O)cc4CC[C@H]3[C@@H]1CC[C@@H]2O | 1.5
2 | C[C@]12CC[C@@H]3c4ccc(O)cc4CC[C@H]3[C@@H]1CCC2=O | 1.5
